Results on one compound are retold here after article PMC5991393, “Pharmacokinetic properties of a novel inosine analog, 4′-cyano-2′-deoxyinosine, after oral administration in rats” (PLoS ONE, 2018).

Structures are written as SMILES. “Also recorded” adds a separate entry of the source.

Data set [1] can be described thus: Urinary excretion of unchanged SK14-061a after oral administration. It is filed as in vivo, rats. The method, then: Rats were fasted for 12 h but with free access to water before dosing. Rats were orally (p.o.) administered a SK14-061a solution at a dose of 1 mg/kg. At stipulated times after the administration (15 min, 45 min, 90 min, 3, 4.5, 6 and 9 hr), venous blood samples were collected from tail vein using a heparinized syringe (0.25ml). The blood samples were centrifuged (3,000 rpm, 10 min) to obtain plasma. […] After obtaining the last blood sample, all rats were sacrificed and kidneys and liver collected. To determine the time-dependent tissue distribution of SK14-061a, rats were sacrificed and organs (kidneys and liver) were collected at 1 and 3 hr after the oral administration of SK14-061a at a dose of 1 mg/kg. To calculate bioavailability, plasma concentrations of SK14-061a after intravenous administration (1 mg/kg) were also obtained at 3 min, 15 min, 30 min, 1, 3, 6 and 9 hr. Before the LC-MS analysis, plasma samples that were collected for pharmacokinetic studies were treated in the same manner as described in the "Validation assays" section. A portion of the liver and kidney tissues (about 500 mg) were homogenized in water (1 mL). The homogenized samples were subsequently ultracentrifuged at 100,000 g for 1 hr, and the supernatant collected. Urine samples were centrifuged (3,000 rpm, 10 min) and the supernatants were used in the analyses. All samples derived from organs and urine were processed using a Waters Oasis MCX 96 well plate in the same manner as was used for the plasma samples before the LC-MS analysis.

Data set [2] is described as follows: Pharmacokinetic study of oral co-administration of SK14-061a and ETV in rats. It is filed as in vivo. Particulars: rat, plasma, po, 1 mg/kg. The method, then:
At stipulated times after the administration (15 min, 45 min, 90 min, 3, 6 and 9 hr), venous blood samples were collected by means of a heparinized syringe (0.25ml). The blood samples were centrifuged (3,000 rpm, 10 min) to obtain plasma. […] All data are expressed as the mean ± S.D. Statistical analyses for multiple comparisons were determined by an analysis of variance (two-way ANOVA) using the Bonferroni correction for multiple comparisons. A probability value of p < 0.05 was considered to be significant. A non-compartment model was used for the pharmacokinetic analysis. Parameters were calculated using the program of a moment analysis developed by Tabata et al. Half-life (t1/2) were calculated from the elimination phase. Area under the concentration-time curve (AUC) were calculated using the following equations: AUC=∫0∞Cdt

Data set [3] concerns human α1-acid glycoprotein (AGP). The data set is described as follows: Protein binding by ultrafiltration, AGP. Particulars: 45 μM AGP, 500 ng/mL. It is filed as in vitro ADME. On the procedure: (§1) Protein binding assays were performed following a previous reported procedure, with minor modifications. In short, pooled human plasma, 600 μM HSA and 45 μM AGP were spiked with an aqueous solution of SK14-061a to produce a final SK14-061a concentration of 500 ng/mL, respectively. The unbound drug fraction was determined by ultrafiltration. Ultrafiltration was carried out using an Amicon® Ultra-0.5 mL centrifugal filter unit with an Ultracel®-30 membrane (Merck Millipore Company, MA). Samples of 500 μL were centrifuged at 14,000 g for 10 min. The SK14-061a concentration were determined by LC-MS without the SPE method.

Data set [4] deals with T1, Human serum albumin (HSA) (Homo sapiens, UniProt P02768).
T1 construct: purchased Sigma-Aldrich (Tokyo, Japan)
T1 sequence (P02768 25-609): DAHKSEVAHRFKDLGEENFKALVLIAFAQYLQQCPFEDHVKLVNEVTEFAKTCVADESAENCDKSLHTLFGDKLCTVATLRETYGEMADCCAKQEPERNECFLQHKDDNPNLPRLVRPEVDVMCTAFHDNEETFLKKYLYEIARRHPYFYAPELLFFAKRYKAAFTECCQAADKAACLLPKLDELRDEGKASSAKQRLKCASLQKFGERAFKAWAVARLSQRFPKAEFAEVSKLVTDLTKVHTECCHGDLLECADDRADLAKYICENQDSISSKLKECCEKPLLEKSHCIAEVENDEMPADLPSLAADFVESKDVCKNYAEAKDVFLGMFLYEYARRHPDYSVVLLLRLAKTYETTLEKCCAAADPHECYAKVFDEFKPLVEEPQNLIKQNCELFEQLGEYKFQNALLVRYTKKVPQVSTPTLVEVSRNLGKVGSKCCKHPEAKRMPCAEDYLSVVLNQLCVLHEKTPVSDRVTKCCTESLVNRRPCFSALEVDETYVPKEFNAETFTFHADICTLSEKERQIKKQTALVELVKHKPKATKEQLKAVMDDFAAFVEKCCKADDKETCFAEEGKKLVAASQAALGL
Description: Protein binding by ultrafiltration, HSA. Format: in vitro ADME. The conditions noted are these: 600 μM HSA, 500 ng/mL. The method, then:
as §1

In the next data set the test system is HIV-1MDR. Further details: method as in PMID 15200030. The conditions noted are these: clone with Ala62Val, Val75Leu, Phe77Leu, Phe116Tyr, Gln115Met; cited from earlier work.
Data set [5] can be described thus: Clinical chemistry (liver and kidney toxicity) after oral SK14-061a. Format: in vivo, Sprague-Dawley rats. The conditions noted are these: p.o., 1 mg/kg, 9 hr after administration. The method, then: Sprague-Dawley rats (male, 230–270 g) were purchased from the Kyudo Co., Ltd. (Saga, Japan). All animals were maintained under conventional housing conditions, with food and water ad libitum in a temperature-controlled room with a 12 hr dark/light cycle. Maintenance of the animals and the experimental procedures performed on them were carried out in accordance with NIH guidelines. All animal experiments were reviewed and approved by the Animal Care and Use committee of Sojo University (Permit #: 2015-P-020). Eight rats were divided into two group: non-treatment group as a control (n = 4) and SK14-061a-treated group (p.o., 1 mg/kg, n = 4). […] The blood samples were centrifuged (3,000 g, 5 min) to obtain plasma for analysis of aspartate aminotransferase (AST), alanine aminotransferase (ALT), urea nitrogen (BUN) and creatinine. All plasma samples were stored at -80 °C prior to analysis by a commercial clinical testing laboratory (Oriental Yeast Co., Tokyo, Japan).

Another data set concerns HIV-1M184V. The arrangement: method as in PMID 15200030. The conditions noted are these: lamivudine-resistant; cited from earlier work.
Data set [6] can be described thus: Protein binding by ultrafiltration, pooled human plasma. It is filed as in vitro ADME. The conditions noted are these: read-out: protein binding rate in human pooled plasma (converted). The method, then: as §1
The mark [7] stands for this setting: rats, p.o., 1 mg/kg, 9 hr after oral administration.

With `N#C[C@]1(CO)O[C@@H](n2cnc3c(O)ncnc32)C[C@@H]1O` [SK14-061a, 4′-cyano-2′-deoxyinosine], the “SK14-061a accumulated in the urine as share of the administered dose” value in data set [1] (during 72 hr after oral administration, authors' other study) is given as “about 45%”. In addition, the dose excreted in data set [1] (rat, urine, po, rats, p.o., 1 mg/kg, 9 hr, taken together with bioavailability (approximately 65%), read-out: recovery of SK14-061a in urine taking bioavailability into account) is around 30%. For the same compound, in data set [1] (setting [7]), the “amount of unchanged SK14-061a accumulated in the urine” value was “about 46 ± 17 μg” and the “unchanged SK14-061a in urine as share of the administered dose” value is listed as “about 20%”. In data set [2], the half-life is 4.07 ± 2.2 h. Further, in data set [2] (read-out: AUC), the exposure (AUC) turned out to be 972 ± 185 ng·h/mL. In addition, the CL/F in data set [2] (read-out: CL/F (converted)) is 17.7 mL/min/kg. Moreover, in data set [2] (read-out: Cmax), the Cmax stood at 165 ± 46.6 ng/mL. Besides, the mean residence time MRT in data set [2] (read-out: MRT) is 3.14 ± 2.16 h. Moreover, the Tmax in data set [2] (read-out: tmax) came to 1.07 ± 0.4 h. The “binding rate to AGP” value in data set [3] was “about 22.1 ± 0.01%”. Besides, in data set [4], the “binding rate to HSA” value is on record as “about 14.7 ± 0.03%”. Further, the “activity against HIV-1MDR” value with HIV-1MDR is on record as “potent activity”. Further, in data set [5], the “change of alanine aminotransferase (ALT) vs control rats” value is given as “no significant changes”, the “change of aspartate aminotransferase (AST) vs control rats” value is “no significant changes”, the “change of blood urea nitrogen (BUN) vs control rats” value is on record as “no significant changes” and the “change of creatinine vs control rats” value is “no significant changes”. Also, the “activity against HIV-1M184V” value with HIV-1M184V is reported as “potent activity; also recorded: highly active”. In data set [6], the fraction unbound at 500 ng/mL is around 0.363.

In general, half-life refers to the time in which the quantity being followed falls by half. As usually defined, the AUC is the area under the concentration-time curve, a measure of exposure. In general, Cmax refers to the maximum level reached in the sampled fluid or tissue. For orientation: MRT means a mean duration of stay, worked out from the concentration-time curve. What is called Tmax is the time at which the peak concentration occurs.
